# According to patent US8546377B2 (AbbVie Inc., priority 2009, dated 2013):
# Where two headings read alike, the source gives them in different places.
# Assays:
# [1] = molecular target: T1, 5HT2C receptors (Homo sapiens, UniProt P28335); experiment: Human 5-HT2C functional assay in CHO-K1 cells (calcium flux, FLIPR); type: cell-based; design: expressed in transfected cells; host or cells: CHO-K1 cells; settings: for Emax: percentage relative to the effect of serotonin
# T1 sequence (P28335 33-458): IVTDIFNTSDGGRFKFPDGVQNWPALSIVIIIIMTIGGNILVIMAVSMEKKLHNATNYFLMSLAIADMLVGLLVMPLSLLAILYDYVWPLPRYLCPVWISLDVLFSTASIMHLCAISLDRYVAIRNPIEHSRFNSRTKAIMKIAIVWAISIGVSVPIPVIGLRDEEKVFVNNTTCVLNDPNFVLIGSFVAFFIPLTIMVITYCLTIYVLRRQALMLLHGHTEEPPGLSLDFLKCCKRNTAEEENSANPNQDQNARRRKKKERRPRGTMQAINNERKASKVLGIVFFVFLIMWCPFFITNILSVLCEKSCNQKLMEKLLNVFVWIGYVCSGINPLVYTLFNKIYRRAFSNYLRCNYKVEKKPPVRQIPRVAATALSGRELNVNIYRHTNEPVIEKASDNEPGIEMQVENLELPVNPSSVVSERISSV
# Method: (§1) (iii) Human 5-HT2C and 5-HT2B Functional Assay in CHO-K1 Cells
# (§2) CHO-K1 cells over-expressing 5HT2C or 5HT2B receptors were grown in 1272 cm^2 flasks to 70-80% confluency in UltraCHO media supplemented with 1% dialyzed fetal bovine serum (FBS), 250 μg/mL zeocin, 100 U/mL penicillin/streptomycin, and 400 μg/mL geneticin. The cells were dissociated from the flasks using 0.05% trypsin, resuspended in freezing media and stored in liquid nitrogen until use. Calcium flux experiments were done using frozen cells. The cells were diluted in media containing 1% dialyzed FBS and 100 U/mL penicillin/streptomycin and plated into 384-well poly-D-Lysine coated plates (15,000 cells/well). Then the plates were incubated overnight in a cell incubator at 37° C., 5% CO2. On the next day, the growth media was replaced with media without FBS and further incubated overnight. On day three, the changes in intracellular Ca^2+ were determined using calcium sensitive fluorescent dye, Ca4 (MDS Analytical Technologies, Sunnyvale, Calif.) by loading 15 μL of diluted dye with 2.5 mM probenecid into the cells containing media and incubated at room temperature for 60 minutes in dark.
# (§3) Fluorescence measurements were read at 25° C. at an excitation wavelength of 480 nm and an emission wavelength of 530 nm in FLIPR (MDS). Baseline fluorescence was measured for the first 10 seconds and then 15 μL of 4× concentrations of serotonin/test compounds was added to the cell plate. The fluorescence intensity was captured every second for the first 1 minute followed by every 5 seconds for an additional 2 minutes. The increase in fluorescent response was determined and was normalized to the response of serotonin. The concentration response of compounds was done from a starting concentration of 10 μM, 1:10 dilution across 6 wells with a final dimethyl sulfoxide concentration of 0.2% and was fitted using a 4-parameter logistic equation. The concentration at which a compound exerts half its maximal effect was named as ‘effective concentration 50’ or ‘EC50’.
# (§4) Emax is the maximum functional response or efficacy expressed as a percentage relative to the effect of serotonin.
# [2] = molecular target: T2, 5HT2B receptors (Homo sapiens, UniProt P41595); experiment: Human 5-HT2B functional assay in CHO-K1 cells (calcium flux, FLIPR); type: cell-based
# T2 construct: expressed in transfected cells; host or cells: CHO-K1 cells
# T2 sequence (P41595 whole entry): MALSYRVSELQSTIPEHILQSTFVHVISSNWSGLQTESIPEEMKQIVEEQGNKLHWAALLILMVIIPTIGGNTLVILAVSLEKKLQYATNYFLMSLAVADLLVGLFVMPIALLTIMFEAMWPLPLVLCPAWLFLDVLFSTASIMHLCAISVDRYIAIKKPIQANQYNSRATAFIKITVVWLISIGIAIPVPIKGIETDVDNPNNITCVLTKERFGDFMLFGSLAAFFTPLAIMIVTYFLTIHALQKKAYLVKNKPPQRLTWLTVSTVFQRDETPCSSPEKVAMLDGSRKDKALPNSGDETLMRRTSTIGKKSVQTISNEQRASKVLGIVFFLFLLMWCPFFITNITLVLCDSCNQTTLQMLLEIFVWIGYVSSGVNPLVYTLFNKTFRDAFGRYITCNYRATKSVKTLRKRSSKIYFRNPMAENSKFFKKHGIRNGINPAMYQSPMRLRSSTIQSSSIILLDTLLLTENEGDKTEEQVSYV
# Method: as §1, §2, §3, §4
# [3] = CHO-K1 cells over-expressing 5HT2C, calcium flux, read-out: EC50 (μM), 5-HT2c Agonist Activity
# [4] = CHO-K1 cells, read-out: Emax (%), 5-HT2c Agonist Activity
# [5] = CHO-K1 cells over-expressing 5HT2B, calcium flux, read-out: EC50 (μM), 5-HT2B Agonist Activity
# [6] = CHO-K1 cells, percentage relative to the effect of serotonin, read-out: Emax (%), 5-HT2B Agonist Activity
# [7] = CHO-K1, read-out: Emax (%), 5-HT2c Agonist Activity, CHO-K1 cells
# [8] = CHO-K1, read-out: Emax (%), 5-HT2B Agonist Activity
Compound,"EC50 [1, 3]","Emax [1, 4]","EC50 [2, 5]","Emax [2, 6]",EC50 [1],"Emax [1, 7]",EC50 [2],"Emax [2, 8]"
"O=C1CC2CNCCN2c2cc(-c3ccccc3-c3ccccc3)ccc2N1 (centres unmarked) [Example 64, 10-(biphenyl-2-yl)-1,2,3,4,4a,5-hexahydropyrazino[1,2-a][1,5]benzodiazepin-6(7H)-one]",0.03 µM,110%,1 µM,15%,–,–,–,–
"c1ccc2c(c1)CCCC1CNCCN21 (centres unmarked) [Example 182, 1,2,3,4,4a,5,6,7-octahydropyrazino[1,2-a][1]benzazepine]",–,–,–,–,0.007 µM,> 120%,0.1 µM,40%
"CCc1cccc2c1OCC[C@H]1CNCCN21 [Example 237, (4aS)-8-ethyl-2,3,4,4a,5,6-hexahydro-1H-pyrazino[2,1-d][1,5]benzoxazepine]",–,–,–,–,0.005 µM,90%,> 10 µM,–
"C[C@@H]1CN2c3ccccc3OCC[C@H]2CN1 [Example 266, (2R,4aS)-2-methyl-2,3,4,4a,5,6-hexahydro-1H-pyrazino[2,1-d][1,5]benzoxazepine]",–,–,–,–,0.1 µM,70%,0.5 µM,15%
"O=C1C[C@H]2CNCCN2c2cccc(F)c2N1 [Example 85, (4aS)-8-fluoro-1,2,3,4,4a,5-hexahydropyrazino[1,2-a][1,5]benzodiazepin-6(7H)-one]",–,–,–,–,0.0051 µM,> 120%,> 10 µM,–
"Fc1cccc2c1N1CCNC[C@@H]1CCO2 [Example 272, (4aS)-11-fluoro-2,3,4,4a,5,6-hexahydro-1H-pyrazino[2,1-d][1,5]benzoxazepine]",–,–,–,–,0.005 µM,85%,0.05 µM,30%
"Clc1ccc2c(c1)OCC[C@@H]1CNCCN21 [Example 260, (4aR)-9-chloro-2,3,4,4a,5,6-hexahydro-1H-pyrazino[2,1-d][1,5]benzoxazepine]",–,–,–,–,0.0003 µM,100%,0.03 µM,90%
"O=C1CC2CNCCN2c2cc(-c3cccc4ccccc34)ccc2N1 (centres unmarked) [Example 67, 10-(1-naphthyl)-1,2,3,4,4a,5-hexahydropyrazino[1,2-a][1,5]benzodiazepin-6(7H)-one]",0.2 µM,110%,> 10 µM,–,–,–,–,–
"O=C1CC2CNCCN2c2cc(-c3csc4ccccc34)ccc2N1 (centres unmarked) [Example 66, 10-(1-benzothiophen-3-yl)-1,2,3,4,4a,5-hexahydropyrazino[1,2-a][1,5]benzodiazepin-6(7H)-one]",0.09 µM,100%,> 10 µM,–,–,–,–,–
"CC(C)COc1cccc(-c2ccc3c(c2)N2CCNCC2CC(=O)N3)c1 (centres unmarked) [Example 96, 10-(3-isobutoxyphenyl)-1,2,3,4,4a,5-hexahydropyrazino[1,2-a][1,5]benzodiazepin-6(7H)-one]",0.02 µM,> 120%,> 10 µM,–,–,–,–,–
"Clc1ccc2c(c1)N1CCNC[C@H]1CCO2 [Example 261, (4aR)-10-chloro-2,3,4,4a,5,6-hexahydro-1H-pyrazino[2,1-d][1,5]benzoxazepine]",–,–,–,–,0.0004 µM,90%,0.03 µM,70%
"Clc1cccc2c1OCC[C@H]1CNCCN21 [Example 138, (4aS)-8-chloro-2,3,4,4a,5,6-hexahydro-1H-pyrazino[2,1-d][1,5]benzoxazepine]",–,–,–,–,0.0007 µM,> 120%,> 10 µM,–
"O=C1CC2CNCCN2c2ncccc2N1 (centres unmarked) [Example 150, 7,7a,8,9,10,11-hexahydropyrazino[1,2-d]pyrido[3,2-b][1,4]diazepin-6(5H)-one]",0.2 µM,–,> 10 µM,–,–,> 120%,–,–

# The next lines start with results.
"EC50 [1, 3]","Emax [1, 4]","EC50 [2, 5]","Emax [2, 6]",Compound,EC50 [1],"Emax [1, 7]",EC50 [2],"Emax [2, 8]"
0.07 µM,55%,> 10 µM,–,"FC(F)(F)c1ccc2c(c1)OCC[C@H]1CNCCN21 [Example 216, (4aS)-9-(trifluoromethyl)-2,3,4,4a,5,6-hexahydro-1H-pyrazino[2,1-d][1,5]benzoxazepine]",–,–,–,–
0.01 µM,> 120%,> 10 µM,–,"O=C1CC2CNCCN2c2cc(CCc3cc(F)cc(F)c3)ccc2N1 (centres unmarked) [Example 147, 10-[2-(3,5-difluorophenyl)ethyl]-1,2,3,4,4a,5-hexahydropyrazino[1,2-a][1,5]benzodiazepin-6(7H)-one]",–,–,–,–
0.01 µM,110%,0.1 µM,20%,"C[C@@H](Oc1ccc2c(c1)N1CCNCC1CC(=O)N2)c1ccccc1 (stereo partly drawn) [Example 153, 10-[(1R)-1-phenylethoxy]-1,2,3,4,4a,5-hexahydropyrazino[1,2-a][1,5]benzodiazepin-6(7H)-one]",–,–,–,–
0.1 µM,85%,0.4 µM,40%,"c1cc(-c2ccc3c(c2)N2CCNC[C@@H]2CCO3)co1 [Example 224, (4aS)-10-(3-furyl)-2,3,4,4a,5,6-hexahydro-1H-pyrazino[2,1-d][1,5]benzoxazepine]",–,–,–,–
0.01 µM,> 120%,1 µM,25%,"CC(=O)c1cccc(-c2ccc3c(c2)N2CCNC[C@@H]2CCO3)c1 [Example 198, 1-{3-[(4aS)-2,3,4,4a,5,6-hexahydro-1H-pyrazino[2,1-d][1,5]benzoxazepin-10-yl]phenyl}ethanone]",–,–,–,–
0.003 µM,110%,> 10 µM,–,"FC(F)(F)c1cccc2c1OCC[C@H]1CNCCN21 [Example 215, (4aS)-8-(trifluoromethyl)-2,3,4,4a,5,6-hexahydro-1H-pyrazino[2,1-d][1,5]benzoxazepine]",–,–,–,–
0.05 µM,> 120%,0.4 µM,30%,"O=C1CC2CNCCN2c2cc(COc3cccc(F)c3)ccc2N1 (centres unmarked) [Example 114, 10-[(3-fluorophenoxy)methyl]-1,2,3,4,4a,5-hexahydropyrazino[1,2-a][1,5]benzodiazepin-6(7H)-one]",–,–,–,–
0.01 µM,> 120%,> 10 µM,–,"C1=C(c2ccc3c(c2)N2CCNC[C@@H]2CCO3)CCCC1 [Example 209, (4aS)-10-(cyclohex-1-en-1-yl)-2,3,4,4a,5,6-hexahydro-1H-pyrazino[2,1-d][1,5]benzoxazepine]",–,–,–,–
0.003 µM,105%,> 10 µM,–,"CC(O)c1cccc(-c2cccc3c2OCC[C@H]2CNCCN32)c1 (stereo partly drawn) [Example 233, 1-{3-[(4aS)-2,3,4,4a,5,6-hexahydro-1H-pyrazino[2,1-d][1,5]benzoxazepin-8-yl]phenyl}ethanol]",–,–,–,–
0.0001 µM,75%,> 10 µM,–,"c1csc(-c2cccc3c2OCC[C@H]2CNCCN32)c1 [Example 249, (4aS)-8-(2-thienyl)-2,3,4,4a,5,6-hexahydro-1H-pyrazino[2,1-d][1,5]benzoxazepine]",–,–,–,–
0.05 µM,> 120%,> 10 µM,–,"Fc1cccc(-c2ccc3c(c2)N2CCNC[C@@H]2CCO3)c1 [Example 204, (4aS)-10-(3-fluorophenyl)-2,3,4,4a,5,6-hexahydro-1H-pyrazino[2,1-d][1,5]benzoxazepine]",–,–,–,–
0.001 µM,100%,0.04 µM,45%,"C[C@@H](Oc1ccc2c(c1)N1CCNC[C@@H]1CC(=O)N2)c1cc(F)ccc1F [Example 178, (4aS)-10-[(1R)-1-(2,5-difluorophenyl)ethoxy]-1,2,3,4,4a,5-hexahydropyrazino[1,2-a][1,5]benzodiazepin-6(7H)-one]",–,–,–,–
0.007 µM,> 120%,> 10 µM,–,"O=C1CC2CNCCN2c2cc(-c3cccc(OC(F)(F)F)c3)ccc2N1 (centres unmarked) [Example 93, 10-[3-(trifluoromethoxy)phenyl]-1,2,3,4,4a,5-hexahydropyrazino[1,2-a][1,5]benzodiazepin-6(7H)-one]",–,–,–,–
